Experimental data: paper PMC5617977, “Antibacterial Activity and Toxicity of Analogs of Scorpion Venom IsCT Peptides” (Antibiotics, 2017)
Entries after “also recorded” stand apart in the source; their conditions may differ. Where no end group is shown, it is not given here.

How the values were obtained:
[1] = test system: Bacillus cereus (ATCC# 11778); assay: Antibacterial activity, standard broth (liquid) dilution; assay type: cell-based; conditions: for MIC B. cereus: Luria Bertani broth, peptide 1, 10, 50, 100 μg/mL, 37 °C, 24 h, absorbance 600 nm, MIC interpolated at 0% bacterial growth, average of three independent experiments
Description: (§1) Antimicrobial activities were determined by standard broth dilution against two Gram-positive and three Gram-negative bacteria. In general, the MICs seem to be higher than the concentrations tested in our experiments (Table 3). Only Staphylococcus aureus and Escherichia coli seem to be inhibited with both natural peptides but also by the leucine substituted analogue, IsCT1L1, at concentrations lower than 25 μg/mL. […] Curiously, some peptides—such as IsCT1V1, IsCT1E7, or even natural IsCT1—when tested with Bacillus cereus show significant bacteria growth inhibition at concentrations lower than 10 μg/mL.
(§2) Two Gram-positive bacteria: Staphylococcus aureus (ATCC# 29213) and Bacillus cereus (ATCC# 11778); and three Gram-negative bacteria: Salmonella typhimurium (ATCC# 14028), Enterobacter aerogenes (ATCC# 13048), and Escherichia coli (ATCC# 25922) were tested.
(§3) Activity was determined by the standard liquid dilution method described previously. All results are the average of three independent experiments. Briefly, cells were grown overnight at 37 °C in Luria Bertani broth and diluted in the same medium for assays. Bacteria were added to serial dilutions of the peptides (final concentrations of 1, 10, 50, and 100 μg/mL) and incubated at 37 °C for 24 h. Cell growth was measured by UV absorbance at 600 nm. For each bacterium, a solution containing no peptide (concentration 0 μg/mL) was processed under identical conditions and used as control for 100% bacterial growth. MICs were obtained from interpolation of 0% bacterial growth from plots. Results are the average of three independent experiments.

[2] = test system: Enterobacter aerogenes (ATCC# 13048); assay: as above; assay type: cell-based; conditions: Luria Bertani broth, peptide 1, 10, 50, 100 μg/mL, 37 °C, 24 h, absorbance 600 nm; MIC interpolated at 0% bacterial growth; average of three independent experiments
Description: as §1, §2, §3

[3] = test system: Escherichia coli (ATCC# 25922); assay: as above; assay type: cell-based; conditions: Luria Bertani broth, peptide 1, 10, 50, 100 μg/mL, 37 °C, 24 h, absorbance 600 nm; MIC interpolated at 0% bacterial growth; average of three independent experiments
Description: as §1, §2, §3

[4] = test system: Salmonella typhimurium (ATCC# 14028); assay: as above; assay type: cell-based; conditions: Luria Bertani broth, peptide 1, 10, 50, 100 μg/mL, 37 °C, 24 h, absorbance 600 nm; MIC interpolated at 0% bacterial growth; average of three independent experiments
Description: as §1, §2, §3

[5] = test system: Staphylococcus aureus (ATCC# 29213); assay: as above; assay type: cell-based; conditions: Luria Bertani broth, peptide 1, 10, 50, 100 μg/mL, 37 °C, 24 h, absorbance 600 nm; MIC interpolated at 0% bacterial growth; average of three independent experiments
Description: as §1, §2, §3

[6] = test system: human erythrocytes; assay: Hemolytic activity; assay type: cell-based; conditions: 1% human erythrocytes in 1× PBS, peptide 1, 10, 50, 100 μg/mL, 37 °C, 1 h, hemoglobin at 416 nm, 100% control 1% TritonX-100; average of two independent experiments
Description: Hemolytic activity was carried out as described previously. Briefly, serial concentrations of peptides (final concentrations of 0 as blank, 1, 10, 50, and 100 μg/mL) were added to 1% human erythrocytes in 1× PBS buffer. The cell suspensions were incubated at 37 °C for 1 h and then centrifuged to remove unlysed erythrocytes. Released hemoglobin was determined spectrophotometrically at 416 nm. The control for 100% release of hemoglobin was a sample of 1% erythrocyte incubated in PBS with 1% TritonX-100. Results are the average of two independent experiments.

[7] = test system: E. coli; conditions: ref Kim [16]; cited from earlier work
Description: (§4) Studies of bacterial inhibition carried out by Dai with IsCT1 and IsCT2 natural peptides show a range of MICs of 1 to 5 μg/mL for different strains of S. aureus and 10 to 25 μg/mL for two strains of Bacillus. For Gram-negative bacteria, they show 5 to 120 μg/mL for two strains of E. coli but 100 or more than 200 μg/mL for other strains of Gram-negative bacteria (Pseudomonas aeruginosa and Proteus mirabilis). Bacterial inhibition studies by Kim with IsCT show MICs of 6 μg/mL for E. coli and 3 μg/mL for S. aureus and, for the IsCT1K7 analog, the reported concentrations are 3 and 1.5 μg/mL ...

[8] = test system: Pseudomonas aeruginosa and Proteus mirabilis; conditions: printed as 100 or more than 200; ref Dai [21]; cited from earlier work
Description: as §4

[9] = test system: S. aureus; conditions: ref Kim [16]; cited from earlier work
Description: as §4

Substance | MIC B. cereus [1] [µg/mL] | MIC E. aerogenes [2] [µg/mL] | MIC E. coli [3] [µg/mL] | MIC S. typhimurium [4] [µg/mL] | MIC S. aureus [5] [µg/mL] | Hemolytic activity (in words) [6] | concentration showing significant bacteria growth inhibition, Bacillus cereus ([1]; inhibition at low concentration, then plateau or slight increase of growth at higher concentrations (Figure S2)) | MIC E. coli [7] [µg/mL] | MIC, other Gram-negative strains (Pseudomonas aeruginosa and Proteus mirabilis) [8] [µg/mL] | MIC S. aureus [9] [µg/mL]
ILGKIWKGIKSLF-NH2 [IsCT1K7] | >100 | >100 | >100 | 100 | 100 | highest hemolytic activity | – | – | – | –
ILGKIWEGIESLF-NH2 [IsCT1E7] | >100 | >100 | >100 | >100 | >100 | no toxicity at all; also recorded: do not have any apparent citotoxicity; also recorded: no apparent cytotoxicity | – | – | – | –
ILGKIWEGIKSLF-NH2 [IsCT1, reference compound] | >100 | >100 | 50 | 100 | 50 | highest hemolytic activity | lower than 10 μg/mL | 6 | ≥ 100 | 3
ILGKLWEGLKSLF-NH2 [IsCT1L1] | >100 | >100 | 50 | 100 | 50 | highest hemolytic activity; also recorded: toxicity similar to the wild type peptides | – | – | – | –
ILGAAWNGAKSLF-NH2 [IsCT2A1, alanine substituted (positions 5 and 9) analog of IsCT2] | >100 | >100 | >100 | >100 | >100 | – | – | – | – | –
IFGAIWNGIKSLF-NH2 [IsCT2, reference compound] | 100 | >100 | 50 | 100 | 50 | highest hemolytic activity | – | – | ≥ 100 | –
ILGKAWEGAKSLF-NH2 [IsCT1A1] | >100 | >100 | >100 | >100 | >100 | – | – | – | – | –
ILGAVWNGVKSLF-NH2 [IsCT2V1, valine substituted (positions 5 and 9) analog of IsCT2] | >100 | >100 | >100 | >100 | >100 | – | – | – | – | –
ILGKVWEGVKSLF-NH2 [IsCT1V1] | >100 | >100 | >100 | >100 | >100 | – | – | – | – | –
